Source: patent US20240327393A1 (SIRONAX LTD., priority 2021, published 2024)

test system: HT-1080 (ATCC, CCL-121) cells; test: HT-1080 cell viability assay with ferroptosis inducer RSL3 (Cell Titer-Glo); format: cell-based; settings: Homo sapiens; HT-1080 cells treated with RSL3; 3-fold, 10-point dilution, 1.1 μM highest concentration; Table 2; read-out: EC50 (nM), ferroptosis inhibitory activity
Procedure, shortened: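 EC50 was derived by sigmoidal dose-response regression of CellTiter-Glo luminescence viability, expressed relative to untreated wells. Compounds were tested in a ten-point, threefold dilution series (highest 1.1 μM) in the presence of the ferroptosis inducer RSL3. HT-1080 cells had been seeded at 6000 per well and grown overnight first.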

Compound | EC50 [nM]
CN1C(=O)COc2ccc(Nc3ccc(N4CCC(C(F)(F)F)CC4)cc3)cc21 [Compound 28, 4-methyl-6-((4-(4-(trifluoromethyl)piperidin-1-yl)phenyl)amino)-2H-benzo[b][1,4]oxazin-3(4H)-one] | 0.1 to 100
CNCCN1C(=O)COc2cc(Nc3ccc(N4CC(C)OC(C)C4)c(C)c3)ccc21 (stereo not shown) [Compound 62, 7-((4-(2,6-dimethylmorpholino)-3-methylphenyl)amino)-4-(2-(methylamino)ethyl)-2H-benzo[b][1,4]oxazin-3(4H)-one] | 0.1 to 100
COC1(C(F)(F)F)CCN(c2c(F)cc(Nc3ccc4c(c3)OCC(=O)N4C)cc2F)CC1 [Compound 161] | 0.1 to 100
CN(C)CCCN1Cc2cc(Nc3ccc(N4CCC(C(F)(F)F)CC4)cc3)ccc2C1=O [Compound 200, 2-(3-(dimethylamino)propyl)-5-((4-(4-(trifluoromethyl)piperidin-1-yl)phenyl)amino)isoindolin-1-one] | 0.1 to 100
CN1C(=O)COc2cc(Nc3ccc(C(C)(C)C)cc3)ccc21 [Compound 47, 7-((4-(tert-butyl)phenyl)amino)-4-methyl-2H-benzo[b][1,4]oxazin-3(4H)-one] | 0.1 to 100
CN1Cc2cc(Nc3ccc(N4CC(C)(C)C4)cc3)ccc2C1=O [Compound 223, 5-((4-(3,3-dimethylazetidin-1-yl)phenyl)amino)-2-methylisoindolin-1-one] | 0.1 to 100
O=C1c2ccc(Nc3ccc(N4CCC(C(F)(F)F)CC4)cc3)cc2CN1Cc1ccccc1 [Compound 199, 2-benzyl-5-((4-(4-(trifluoromethyl)piperidin-1-yl)phenyl)amino) isoindolin-1-one] | 0.1 to 100
CN1C(=O)OCc2cc(Nc3ccc(N4CCC(C(F)(F)F)CC4)cc3)ccc21 [Compound 128, 1-methyl-6-((4-(4-(trifluoromethyl)piperidin-1-yl)phenyl)amino)-1,4-dihydro-2H-benzo[d][1,3]oxazin-2-one] | 0.1 to 100
COC1(C(F)(F)F)CCN(c2ccc(Nc3ccc4c(c3)OCC(=O)N4C)c(C)c2)CC1 [Compound 129, 7-((4-(4-methoxy-4-(trifluoromethyl)piperidin-1-yl)-2-methylphenyl)amino)-4-methyl-2H-benzo[b][1,4]oxazin-3(4H)-one] | 0.1 to 100
CNCCCN1C(=O)COc2cc(Nc3ccc(N4CC(C)OC(C)C4)c(C)c3)ccc21 (stereo not shown) [Compound 56, 7-((4-(2,6-dimethylmorpholino)-3-methylphenyl)amino)-4-(3-(methylamino)propyl)-2H-benzo[b][1,4]oxazin-3(4H)-one] | 0.1 to 100

same assay, conditions: Homo sapiens; HT-1080 cells treated with RSL3; 3-fold, 10-point dilution, 1.1 μM highest concentration; Table 3; read-out: EC50 (nM), ferroptosis inhibitory activity

Compound | EC50 [nM]
Cc1cc(N2CCC(C(F)(F)F)CC2)ccc1Nc1ccc2c(c1)CNC(=O)N2 [Compound 535, 6-((2-methyl-4-(4-(trifluoromethyl)piperidin-1-yl)phenyl)amino)-3,4-dihydroquinazolin-2(1H)-one] | 0.1 to 100
O=C1COc2cc(Nc3ccc(N4CCC(C(F)(F)F)CC4)cc3F)ccc2N1 [Compound 466, 7-((2-fluoro-4-(4-(trifluoromethyl)piperidin-1-yl)phenyl)amino)-2H-benzo[b][1,4]oxazin-3(4H)-one] | 0.1 to 100
CCC(C)(C)Nc1ccc(Nc2ccc3c(c2)OCC(=O)N3)c(C)c1 [Compound 659, 7-[4-(1,1-dimethylpropylamino)-2-methyl-anilino]-4H-1,4-benzoxazin-3-one] | 0.1 to 100
O=C1COc2cc(Nc3cnc(N4CCC(C(F)(F)F)CC4)nc3)ccc2N1 [Compound 475, 7-((2-(4-(trifluoromethyl)piperidin-1-yl)pyrimidin-5-yl)amino)-2H-benzo[b][1,4]oxazin-3(4H)-one] | 0.1 to 100
Cc1c(Nc2ccc3c(c2)OCC(=O)N3)ccc(N2CCC(C(F)(F)F)CC2)c1C [Compound 487, 7-((2,3-dimethyl-4-(4-(trifluoromethyl)piperidin-1-yl)phenyl)amino)-2H-benzo[b][1,4]oxazin-3(4H)-one] | 0.1 to 100
Cc1nc(N2CCOC(C)(C)C2)ccc1Nc1ccc2c(c1)OCC(=O)N2 [Compound 500, 7-((6-(2,2-dimethylmorpholino)-2-methylpyridin-3-yl)amino)-2H-benzo[b][1,4]oxazin-3(4H)-one] | 0.1 to 100
